According to paper PMC9630261 (2022):

What was measured:
Assay in all cases: fluorescence quenching titration of drug with DNA
[1] = system: Q0 (DNA, aptamer) GGCGACAAGGAAAATCCTTCAACGAAGTGGGTCGCC; details: Na+ (50 mM NaH2PO4, adjusted with NaOH); pH 7.00, 20 °C; KD corrected for stoichiometry (per site)
[2] = system: Q1 (DNA, aptamer) GACAAGGAAAATCCTTCAACGAAGTGGGTCG; details: Na+ (50 mM NaH2PO4, adjusted with NaOH); pH 7.00, 20 °C; KD corrected for stoichiometry (per site)
[3] = system: Q2 (DNA, aptamer) GGCGACAAGGAAAATCCTTTCACGAAGTGGGTCGCCG; details: Na+ (50 mM NaH2PO4, adjusted with NaOH); pH 7.00, 20 °C; KD corrected for stoichiometry (per site)
[4] = system: D0 (DNA, duplex) CGCGCGCGCGCG; details: Na+ (50 mM Na2HPO4, 100 mM NaCl), pH 7.00, 20 °C, KD corrected for stoichiometry (per site)
[5] = system: D1 (same sequence as G-quad) (DNA, G4) GGGCTTTTGGGC; details: K+ (50 mM K2HPO4, 100 mM KCl per Methods; Table S2 says phosphate sodium), pH 7.00, 20 °C, KD corrected for stoichiometry (per site)
[6] = system: D2 (DNA, G4) GGTTGGTGTGGTTGG; details: K+ (50 mM K2HPO4, 100 mM KCl per Methods; Table S2 says phosphate sodium), pH 7.00, 20 °C, KD corrected for stoichiometry (per site)
[7] = system: D0-thioate (D0-PS) (DNA, duplex, phosphorothioate at all 11 linkages) CGCGCGCGCGCG; details: in serum (mouse serum), 37 °C, KD corrected for stoichiometry (per site)
[8] = system: D0-L-thioate (DNA, duplex, phosphorothioate at all 23 linkages) CGCGCGCGCGCGCGCGCGCGCGCG; details: in serum (mouse serum), 37 °C, KD corrected for stoichiometry (per site)
[9] = system: D0-L-thioate-C16 (DNA, duplex, phosphorothioate at all 23 linkages) CGCGCGCGCGCGCGCGCGCGCGCG; details: in serum (mouse serum), 37 °C, KD corrected for stoichiometry (per site)

Row | KD [1] [nM] | KD [2] [nM] | KD [3] [nM] | KD [4] [nM] | KD [5] [nM] | KD [6] [nM] | KD [7] [nM] | KD [8] [nM] | KD [9] [nM] | Structure (SMILES)
1 | 89.7 ± 10 | 198 ± 6 | 2740 ± 200 |  |  |  |  |  |  | C=C[C@H]1CN2CC[C@H]1C[C@H]2[C@H](O)c1ccnc2ccc(OC)cc12
2 |  |  |  | 133 ± 20 | 703 ± 80 | 3760 ± 300 | 1020 ± 20 | 592 ± 100 | 578 ± 100 | COc1cccc2c1C(=O)c1c(O)c3c(c(O)c1C2=O)C[C@@](O)(C(=O)CO)C[C@@H]3O[C@H]1C[C@H](N)[C@H](O)[C@H](C)O1
